Activity calls are given as the source filed them. The rule behind the calls is not given here. Non-standard residues stand in square brackets, D forms with d. Residues, ends and D or L forms follow the SMILES beside them. Aad = N[C@@H](CCCC(=O)O)C(=O)O
Key:
Cell membrane [1] = test: Induction of morphological changes in cell membrane of human MCF7 cells assessed as cell depression at 1 times IC50 incubated for 1 hr by SEM analysis; assay type: cell membranes
[2] = Therapeutic index, ratio of HC10 for mouse RBC to IC50 for cytotoxicity against human MCF7 cells; assay type: toxicity, cell-based; details: mouse RBC and MCF7 cells, read-out: TI
[3] = Acute toxicity in female Balb/c mouse assessed as reduction in survival rate at 65 to 110 mg/kg, ip administered as single dose and measured for 7 days; assay type: organism-based; details: in vivo, 168 h, dose 65-110 mg/kg, time 7 day
[4] = Cytotoxicity against RG cells (unknown origin) assessed as inhibition of cell growth incubated for 1 hr by MTT assay; assay type: functional, cell-based
MCF7 [5] = test: Induction of apoptosis in human MCF7 cells assessed as increase in intracellular ROS generation at 1 times IC50 measured after 0 to 360 mins by DCFH-DA staining based analysis; assay type: functional, cell-based; details: time 0-360 min
MCF7 [6] = test: Induction of cell cycle arrest at G0/G1 phase in human MCF7 cells at 1 times IC50 measured after 24 hrs by PI/RNase staining based flow cytometry analysis; assay type: functional
[7] = Therapeutic index, ratio of HC10 for mouse RBC to IC50 for cytotoxicity against human A549 cells; assay type: toxicity, cell-based; details: mouse RBC and A549 cells, read-out: TI
[8] = Acute toxicity in ip dosed female Balb/c mouse administered as single dose and measured for 7 days by karber method; assay type: organism-based; details: in vivo, time 7 day
Cell membrane [9] = test: Disruption of cell membrane integrity in human MCF7 cells assessed as increase in PI fluorescence measured after 1 hr by laser confocal scanning microscopic analysis; assay type: cell membranes
[10] = Acute toxicity in female Balb/c mouse assessed as reduction in survival rate at 50 mg/kg, ip administered as single dose and measured for 7 days; assay type: organism-based; details: in vivo, 168 h, time 7 day
4T1 [11] = test: Antitumor activity against mouse 4T1 cells implanted in female Balb/c mouse assessed as increase in tumor cell apoptosis at 12 micromol/kg, ip administered every other day for 2 weeks by H and E staining based analysis; assay type: functional, organism-based; details: dose 12.0 µmol/kg
[12] = Cytotoxicity against HK-2 cells assessed as inhibition of cell growth incubated for 1 hr by MTT assay; assay type: toxicity, cell-based; details: human
4T1 [13] = test: Antitumor activity against mouse 4T1 cells implanted in female Balb/c mouse assessed as increase in tumor cell necrosis at 12 micromol/kg, ip administered every other day for 2 weeks by H and E staining based analysis; assay type: functional, organism-based; details: dose 12.0 µmol/kg
MCF7 [14] = test: Effect on cell cycle progression in human MCF7 cells at 1 times IC50 measured after 1 hr by PI/RNase staining based flow cytometry analysis; assay type: functional
[15] = Drug uptake in HK-2 cells at 5 uM incubated for 1 hr by laser confocal scanning microscopic analysis; assay type: ADME, cell-based; details: human, hk-2, 1 h
Cell membrane [16] = test: Induction of cell membrane damage in human MCF7 cells assessed as protein leakage at 1 to 2 times IC50 measured after 0.5 to 6 hrs by UV based analysis; assay type: cell membranes; details: time 0.5-6 hrs
MCF7 [17] = test: Cytotoxicity against human MCF7 cells assessed as inhibition of cell growth incubated for 1 hr by MTT assay; assay type: functional, cell-based; details: MCF7, 1 h
[18] = Acute toxicity in female Balb/c mouse assessed as shrinking cytoplasm in kidney at approximately LD50 administered as single ip dose by H and E staining based analysis; assay type: organism-based; details: in vivo
[19] = Acute toxicity in female Balb/c mouse assessed as reduction in survival rate at 37 mg/kg, ip administered as single dose and measured for 7 days; assay type: organism-based; details: in vivo, 168 h, time 7 day
[20] = Acute toxicity in female Balb/c mouse assessed as reduction in survival rate at 37 to 55 mg/kg, ip administered as single dose and measured for 7 days; assay type: organism-based; details: in vivo, 168 h, dose 37-55 mg/kg, time 7 day
[21] = Acute toxicity in female Balb/c mouse assessed as necrosis in kidney at approximately LD50 administered as single ip dose by H and E staining based analysis; assay type: organism-based; details: in vivo
4T1 [22] = test: Antitumor activity against mouse 4T1 cells implanted in female Balb/c mouse assessed as increase in tumor cell lysis at 12 micromol/kg, ip administered every other day for 2 weeks by H and E staining based analysis; assay type: functional, organism-based; details: dose 12.0 µmol/kg
4T1 [23] = test: Antitumor activity against mouse 4T1 cells implanted in female Balb/c mouse assessed as nucleus contraction at 12 micromol/kg, ip administered every other day for 2 weeks by H and E staining based analysis; assay type: functional, organism-based; details: dose 12.0 µmol/kg
[24] = Acute toxicity in female Balb/c mouse assessed as reduction in survival rate at 82 to 130 mg/kg, ip administered as single dose and measured for 7 days; assay type: organism-based; details: in vivo, 168 h, dose 82-130 mg/kg, time 7 day
[25] = Acute toxicity in female Balb/c mouse assessed as reduction in survival rate at 65 mg/kg, ip administered as single dose and measured for 7 days; assay type: organism-based; details: in vivo, 168 h, time 7 day

CC(C)C[C@H](NC(=O)[C@H](CCCCN)NC(=O)[C@H](CCCCN)NC(=O)[C@H](CC(C)C)NC(=O)[C@H](CC(C)C)NC(=O)[C@H](CCCCN)NC(=O)[C@H](CCCCN)NC(=O)[C@H](CC(C)C)NC(=O)[C@H](CC(C)C)NC(=O)[C@H](CCCCN)NC(=O)[C@H](CCCCN)NC(=O)[C@H](CC(C)C)NC(=O)[C@@H](N)CC(C)C)C(=O)N[C@@H](CCC(=O)O)C(N)=O (H-LLKKLLKKLLKKLE-NH2)
Activity (Cell membrane [1]): Active
selectivity ratio [2]: 14.2
Activity [3]: Toxic
IC50 [4]: 21.3 µM
Activity (MCF7 [5]): Active
Activity (MCF7 [6]): Active
selectivity ratio [7]: 21.1
LD50 at 168 h [8]: 79.9 mg/kg
Activity (Cell membrane [9]): Dose-Dependent Effect
Activity [10]: Non-Toxic
Activity (4T1 [11]): Active
IC50 at 1 h [12]: 59.3 µM
Activity (4T1 [13]): Active
Activity (MCF7 [14]): inactive
Drug uptake [15]: Not Active
Activity (Cell membrane [16]): Active
IC50 (MCF7 [17]): 21.4 µM

CC(C)C[C@H](NC(=O)[C@H](CC(C)C)NC(=O)[C@H](CCCCN)NC(=O)[C@H](CCCCN)NC(=O)[C@H](CC(C)C)NC(=O)[C@H](CC(C)C)NC(=O)[C@H](CCCCN)NC(=O)[C@H](CCCCN)NC(=O)[C@H](CC(C)C)NC(=O)[C@H](CC(C)C)NC(=O)[C@H](CCCCN)NC(=O)[C@H](CCCCN)NC(=O)[C@H](CC(C)C)NC(=O)[C@@H](N)CC(C)C)C(N)=O (H-LLKKLLKKLLKKLL-NH2)
Activity (Cell membrane [1]): Active
selectivity ratio [2]: 2.27
IC50 [4]: 6.41 µM
Activity [18]: Toxic
Activity [19]: Non-Toxic
Activity (MCF7 [5]): Active
Activity (MCF7 [6]): Active
selectivity ratio [7]: 2.96
LD50 at 168 h [8]: 50.2 mg/kg
Activity (Cell membrane [9]): Dose-Dependent Effect
Activity (4T1 [11]): Active
IC50 at 1 h [12]: 5.4 µM
Activity (4T1 [13]): Active
Activity (MCF7 [14]): inactive
Activity [20]: Toxic
Drug uptake [15]: Active
Activity (Cell membrane [16]): Active
Activity [21]: Toxic
IC50 (MCF7 [17]): 4.76 µM

CC(C)C[C@H](NC(=O)[C@H](CCCCN)NC(=O)[C@H](CCCCN)NC(=O)[C@H](CC(C)C)NC(=O)[C@H](CC(C)C)NC(=O)[C@H](CCCCN)NC(=O)[C@H](CCCCN)NC(=O)[C@H](CC(C)C)NC(=O)[C@H](CC(C)C)NC(=O)[C@H](CCCCN)NC(=O)[C@H](CCCCN)NC(=O)[C@H](CC(C)C)NC(=O)[C@@H](N)CC(C)C)C(=O)N[C@@H](CCCC(=O)O)C(N)=O (H-LLKKLLKKLLKKL[Aad]-NH2)
Activity (Cell membrane [1]): Active
selectivity ratio [2]: 16.3
Activity (4T1 [22]): Active
IC50 [4]: 20.1 µM
Activity (MCF7 [5]): Active
Activity (MCF7 [6]): Active
selectivity ratio [7]: 24.9
LD50 at 168 h [8]: 84 mg/kg
Activity (Cell membrane [9]): Dose-Dependent Effect
Activity (4T1 [23]): Active
Activity (4T1 [11]): Active
IC50 at 1 h [12]: 38.7 µM
Activity (4T1 [13]): Active
Activity (MCF7 [14]): inactive
Drug uptake [15]: Not Active
Activity (Cell membrane [16]): Active
Activity [24]: Toxic
Activity [25]: Non-Toxic
IC50 (MCF7 [17]): 15.7 µM

Reference: ChEMBL document CHEMBL5584231, “Rational design of a new short anticancer peptide with good potential for cancer treatment” (Eur J Med Chem, 2024)
